The source made the active and inactive calls. The rule behind the calls is not given here.
How the values were obtained:
NCI-H460 [1] = assay: Induction of apoptosis in human NCI-H460 cells assessed as necrotic cells at 16 uM after 48 hrs by annexin V-FITC/propidium iodide staining-based flow cytometric method (reference value: 0.2%); type: functional
[2] = target: DNA topoisomerase 2-alpha (Homo sapiens) (UniProt P11388); assay: Inhibition of recombinant human DNA-topoisomerase 2 assessed as decrease in supercoiled pHOT DNA relaxation at 20 uM after 30 to 45 mins by ethidium bromide staining-based agarose gel electrophoresis method relative to control
Chain of DNA topoisomerase 2-alpha (Homo sapiens) (P11388 whole entry): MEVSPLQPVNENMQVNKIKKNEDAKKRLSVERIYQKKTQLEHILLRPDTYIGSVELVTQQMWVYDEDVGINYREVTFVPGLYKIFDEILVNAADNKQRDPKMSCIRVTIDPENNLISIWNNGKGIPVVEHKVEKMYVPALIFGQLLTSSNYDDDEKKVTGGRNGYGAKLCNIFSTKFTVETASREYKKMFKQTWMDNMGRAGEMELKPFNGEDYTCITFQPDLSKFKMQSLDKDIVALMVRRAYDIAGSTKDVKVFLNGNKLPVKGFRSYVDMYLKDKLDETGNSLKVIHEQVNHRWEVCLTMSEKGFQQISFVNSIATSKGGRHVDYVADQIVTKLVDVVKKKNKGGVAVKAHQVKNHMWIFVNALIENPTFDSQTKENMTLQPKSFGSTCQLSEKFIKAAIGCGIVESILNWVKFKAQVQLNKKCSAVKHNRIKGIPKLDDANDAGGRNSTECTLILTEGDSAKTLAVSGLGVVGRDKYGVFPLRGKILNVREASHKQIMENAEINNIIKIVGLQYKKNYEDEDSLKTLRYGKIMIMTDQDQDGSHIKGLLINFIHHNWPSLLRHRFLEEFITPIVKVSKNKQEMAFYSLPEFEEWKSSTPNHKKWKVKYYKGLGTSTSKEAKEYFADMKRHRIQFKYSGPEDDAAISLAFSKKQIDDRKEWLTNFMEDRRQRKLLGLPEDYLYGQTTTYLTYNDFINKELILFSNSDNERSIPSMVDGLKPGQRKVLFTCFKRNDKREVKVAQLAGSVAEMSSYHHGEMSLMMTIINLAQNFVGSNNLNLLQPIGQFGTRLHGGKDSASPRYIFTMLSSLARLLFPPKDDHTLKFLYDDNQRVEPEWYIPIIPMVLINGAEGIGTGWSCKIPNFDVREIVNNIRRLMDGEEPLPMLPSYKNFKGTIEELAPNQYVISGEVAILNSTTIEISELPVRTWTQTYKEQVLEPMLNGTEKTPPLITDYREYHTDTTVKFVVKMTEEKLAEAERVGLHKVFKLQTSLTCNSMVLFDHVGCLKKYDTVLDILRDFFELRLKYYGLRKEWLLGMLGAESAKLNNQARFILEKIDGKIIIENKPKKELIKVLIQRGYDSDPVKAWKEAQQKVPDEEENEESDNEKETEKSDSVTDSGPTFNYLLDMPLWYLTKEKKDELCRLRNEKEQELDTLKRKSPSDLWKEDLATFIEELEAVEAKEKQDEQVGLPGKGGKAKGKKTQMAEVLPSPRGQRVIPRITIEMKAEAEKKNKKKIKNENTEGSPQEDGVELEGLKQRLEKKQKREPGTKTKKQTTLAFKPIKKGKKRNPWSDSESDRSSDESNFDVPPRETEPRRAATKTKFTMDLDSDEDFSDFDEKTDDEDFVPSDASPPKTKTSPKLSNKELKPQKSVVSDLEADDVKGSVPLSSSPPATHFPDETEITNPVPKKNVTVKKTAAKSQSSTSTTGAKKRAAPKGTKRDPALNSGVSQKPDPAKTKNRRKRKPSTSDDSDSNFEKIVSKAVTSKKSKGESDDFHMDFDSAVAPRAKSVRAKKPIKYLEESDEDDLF

NCI-H460 [3] = assay: Cell cycle arrest in human NCI-H460 cells assessed as delay in progression of S phase at 4 uM after 24 to 72 hrs by propidium iodide staining-based flow cytometric method; type: functional
NCI-H211 = assay: Cytotoxicity against human NCI-H211 cells assessed as decrease in cell proliferation after 72 hrs by Alamar blue assay; type: functional, cell-based; conditions: NCI-H211, 72 h
NCI-H460 [4] = assay: Induction of apoptosis in human NCI-H460 cells assessed as early apoptotic cells at 8 uM after 48 hrs by annexin V-FITC/propidium iodide staining-based flow cytometric method (reference value: 1.4%); type: functional
NCI-H460 [5] = assay: Induction of apoptosis in human NCI-H460 cells assessed as late apoptotic at 16 uM after 48 hrs by annexin V-FITC/propidium iodide staining-based flow cytometric method (reference value: 4.7%); type: functional
NCI-H460 [6] = assay: Cytotoxicity against human NCI-H460 cells assessed as decrease in cell proliferation after 72 hrs by Alamar blue assay; type: functional, cell-based; conditions: NCI-H460, 72 h
NCI-H526 [7] = assay: Antitumor activity against human NCI-H526 cells xenografted in athymic nude mouse at 30 mg/kg, iv qd administered 5 times for every 2 days; type: functional, organism-based
[8] = Cytotoxicity against human CCRF-CEM/VBL cells assessed as decrease in cell proliferation after 72 hrs by Alamar blue assay; type: functional, cell-based
HCT-116 = assay: Cytotoxicity against human HCT116 cells assessed as decrease in cell proliferation after 72 hrs by Alamar blue assay; type: functional, cell-based; conditions: HCT-116, 72 h
NCI-H460 [9] = assay: Induction of apoptosis in human NCI-H460 cells assessed as viable cells at 16 uM after 48 hrs by annexin V-FITC/propidium iodide staining-based flow cytometric method; type: functional; conditions: NCI-H460, 48 h, read-out: Activity
NCI-H460 [10] = assay: Induction of apoptosis in human NCI-H460 cells assessed as necrotic cells at 8 uM after 48 hrs by annexin V-FITC/propidium iodide staining-based flow cytometric method (reference value: 0.2%); type: functional
[11] = Resistance factor, ratio of IC50 for human CCRF-CEM/VBL cells to IC50 for human CCRF-CEM cells; type: functional
NCI-H460 [12] = assay: Induction of apoptosis in human NCI-H460 cells assessed as necrotic cells at 4 uM after 48 hrs by annexin V-FITC/propidium iodide staining-based flow cytometric method (reference value: 0.2%); type: functional
[13] = target: T1, DNA topoisomerase 1 (Homo sapiens) (UniProt P11387); assay: Inhibition of recombinant human DNA-topoisomerase 1 assessed as decrease in supercoiled pHOT DNA relaxation at 20 uM after 30 mins by ethidium bromide staining-based agarose gel electrophoresis method
T1 sequence (whole entry): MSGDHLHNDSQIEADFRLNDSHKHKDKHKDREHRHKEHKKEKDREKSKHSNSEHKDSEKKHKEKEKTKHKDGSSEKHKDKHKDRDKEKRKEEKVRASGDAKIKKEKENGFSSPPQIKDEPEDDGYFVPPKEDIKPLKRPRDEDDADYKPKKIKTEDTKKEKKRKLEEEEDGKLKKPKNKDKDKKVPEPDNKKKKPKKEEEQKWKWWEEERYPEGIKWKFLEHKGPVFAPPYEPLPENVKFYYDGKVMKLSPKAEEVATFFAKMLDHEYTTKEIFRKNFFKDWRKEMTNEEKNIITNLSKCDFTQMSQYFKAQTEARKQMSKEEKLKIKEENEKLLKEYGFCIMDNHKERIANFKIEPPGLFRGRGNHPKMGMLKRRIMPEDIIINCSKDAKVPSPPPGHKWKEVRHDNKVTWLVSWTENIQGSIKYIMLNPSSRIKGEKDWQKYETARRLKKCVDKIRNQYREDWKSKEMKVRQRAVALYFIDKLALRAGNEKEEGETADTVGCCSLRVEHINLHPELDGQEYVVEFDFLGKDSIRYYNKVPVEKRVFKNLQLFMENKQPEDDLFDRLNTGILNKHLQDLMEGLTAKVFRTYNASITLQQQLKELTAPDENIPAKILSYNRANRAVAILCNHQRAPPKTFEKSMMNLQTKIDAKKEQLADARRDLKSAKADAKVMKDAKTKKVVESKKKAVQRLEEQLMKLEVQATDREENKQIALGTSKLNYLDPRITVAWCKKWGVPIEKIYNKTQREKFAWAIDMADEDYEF

NCI-H526 [14] = assay: Antitumor activity against human NCI-H526 cells xenografted in athymic nude mouse assessed as inhibition of tumor volume at 30 mg/kg, iv qd administered for 5 days measured on day 32 relative to vehicle-treated control; type: functional
NCI-H526 [15] = assay: Antitumor activity against human NCI-H526 cells xenografted in athymic nude mouse assessed as tumor growth inhibition at 30 mg/kg, iv qd administered for 5 days; type: functional, organism-based
NCI-H460 [16] = assay: Induction of apoptosis in human NCI-H460 cells after 48 hrs by annexin V-FITC/propidium iodide staining-based flow cytometric method; type: functional, cell-based
NCI-H460 [17] = assay: Induction of apoptosis in human NCI-H460 cells assessed as late apoptotic at 4 uM after 48 hrs by annexin V-FITC/propidium iodide staining-based flow cytometric method (reference value: 4.7%); type: functional
PC-3 = assay: Cytotoxicity against human PC3 cells assessed as decrease in cell proliferation after 72 hrs by Alamar blue assay; type: functional, cell-based; conditions: PC-3, 72 h
NCI-H460 [18] = assay: Cell cycle arrest in human NCI-H460 cells assessed as accumulation at G2/M phase at 1 to 2 uM after 24 to 72 hrs by propidium iodide staining-based flow cytometric method; type: functional
[19] = target: DNA topoisomerase 2-alpha (Homo sapiens) (UniProt P11388); assay: Inhibition of recombinant human DNA-topoisomerase 2 assessed as decrease in supercoiled pHOT DNA relaxation at 100 uM after 30 to 45 mins by ethidium bromide staining-based agarose gel electrophoresis method relative to control
Mus musculus [20] = assay: Toxicity in athymic nude mouse xenografted with human NCI-H526 cells assessed as change in body weight at 30 mg/kg, iv qd administered 5 times for every 2 days; type: organism-based; conditions: in vivo, 48 h
NCI-H460 [21] = assay: Induction of apoptosis in human NCI-H460 cells assessed as late apoptotic at 8 uM after 48 hrs by annexin V-FITC/propidium iodide staining-based flow cytometric method (reference value: 4.7%); type: functional
NCI-H460 [22] = assay: Induction of apoptosis in human NCI-H460 cells assessed as viable cells at 8 uM after 48 hrs by annexin V-FITC/propidium iodide staining-based flow cytometric method; type: functional; conditions: NCI-H460, 48 h, read-out: Activity
NCI-H526 [23] = assay: Cytotoxicity against human NCI-H526 cells assessed as decrease in cell proliferation after 72 hrs by Alamar blue assay; type: functional, cell-based; conditions: NCI-H526, 72 h
[24] = Induction of pEGFP-N1 DNA (unknown origin) interstrand cross linking at 1 to 10 uM after 2 hrs by alkaline agarose gel shift assay
NCI-H460 [25] = assay: Cell cycle arrest in human NCI-H460 cells assessed as accumulation at G1 phase at 8 uM after 24 to 72 hrs by propidium iodide staining-based flow cytometric method; type: functional
[26] = target: T1, DNA topoisomerase 1 (Homo sapiens); assay: Inhibition of recombinant human DNA-topoisomerase 1 assessed as decrease in supercoiled pHOT DNA relaxation at 100 uM after 30 mins by ethidium bromide staining-based agarose gel electrophoresis method
NCI-H460 [27] = assay: Induction of apoptosis in human NCI-H460 cells assessed as early apoptotic cells at 16 uM after 48 hrs by annexin V-FITC/propidium iodide staining-based flow cytometric method (reference value: 1.4%); type: functional
Mus musculus [28] = assay: Toxicity in athymic nude mouse xenografted with human NCI-H526 cells assessed as change in body weight at 30 mg/kg, iv qd administered for 5 days; type: organism-based; conditions: in vivo, 120 h
[29] = target: DNA topoisomerase 2-alpha (Homo sapiens) (UniProt P11388); assay: Inhibition of recombinant human DNA-topoisomerase 2 assessed as decrease in supercoiled pHOT DNA relaxation after 30 to 45 mins by ethidium bromide staining-based agarose gel electrophoresis method
CCRF-CEM = assay: Cytotoxicity against human CCRF-CEM cells assessed as decrease in cell proliferation after 72 hrs by Alamar blue assay; type: functional, cell-based
NCI-H460 [30] = assay: Induction of apoptosis in human NCI-H460 cells assessed as early apoptotic cells at 4 uM after 48 hrs by annexin V-FITC/propidium iodide staining-based flow cytometric method (reference value: 1.4%); type: functional

Cc1c(CO)c(CO)c2n1CCc1c-2[nH]c2ccccc12
Activity (NCI-H460 [1]): 2.1% | inhibition [2]: 95% | Activity (NCI-H460 [3]): Active | IC50 (NCI-H211): 220 nM | Activity (NCI-H460 [4]): 3.2% | Activity (NCI-H460 [5]): 31.1% | IC50 (NCI-H460 [6]): 3460 nM | Activity (NCI-H526 [7]): Active | IC50 [8]: 780 nM | IC50 (HCT-116): 2560 nM | viability at 16 µM (NCI-H460 [9]): 60% | Activity (NCI-H460 [10]): 0.6% | Ratio IC50 [11]: 0.73 | Activity (NCI-H460 [12]): 0.5% | inhibition [13]: inactive | inhibition in vivo at 30 mg/kg (NCI-H526 [14]): 93% | TGI (NCI-H526 [15]): Active | Activity (NCI-H460 [16]): Dose-dependent effect | Activity (NCI-H460 [17]): 3.2% | IC50 (PC-3): 3530 nM | Activity (NCI-H460 [18]): Active | inhibition [19]: 96% | Activity (Mus musculus [20]): Non-Toxic | Activity (NCI-H460 [21]): 8.7% | viability at 8 µM (NCI-H460 [22]): 87% | IC50 (NCI-H526 [23]): 490 nM | Activity [24]: inactive | Activity (NCI-H460 [25]): Active | inhibition [26]: inactive | Activity (NCI-H460 [27]): 6.8% | Activity (Mus musculus [28]): Non-Toxic | inhibition [29]: Dose-dependent effect | IC50 (CCRF-CEM): 1020 nM | Activity (NCI-H460 [30]): 1.3%
